Measurements taken from patent US7135476B2, “Spiro tetrahydroquinazolines and dihydrocyclopentapyrimidines as CRF antagonists” (Roche Palo Alto LLC, priority 2003, dated 2006).

Molecular target: T1, CRF1 Receptor (Homo sapiens, UniProt P34998)
T1 construct: endogenous in cells; host or cells: IMR-32 human neuroblastoma cells (membrane preparation)
T1 sequence (P34998 24-415): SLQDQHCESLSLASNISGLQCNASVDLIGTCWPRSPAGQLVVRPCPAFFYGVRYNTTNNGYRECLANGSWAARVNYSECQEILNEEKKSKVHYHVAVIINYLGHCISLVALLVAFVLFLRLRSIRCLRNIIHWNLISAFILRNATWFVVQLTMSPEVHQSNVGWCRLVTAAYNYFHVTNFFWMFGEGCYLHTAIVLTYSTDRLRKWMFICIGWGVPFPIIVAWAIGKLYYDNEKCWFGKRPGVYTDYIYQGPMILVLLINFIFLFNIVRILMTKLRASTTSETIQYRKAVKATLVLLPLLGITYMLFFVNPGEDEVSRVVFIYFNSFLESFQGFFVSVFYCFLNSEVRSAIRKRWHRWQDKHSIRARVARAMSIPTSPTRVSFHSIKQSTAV
Assay: CRF1 Receptor Binding Assay
Conditions: competition with [125I]Tyr0-ovine CRF, human IMR-32 neuroblastoma cell membranes; pKi derived from pIC50
Procedure: CRF1 Receptor Binding Assay
Human IMR-32 neuroblastoma cells are grown to 80% confluence in MEM medium containing 10% heat-inactivated FBS, 1 mM Sodium Pyruvate, and 0.1 mM nonessential amino acids. Cell membranes are prepared according the method of Dieterich and DeSouza (1996). The cells (˜5E+9) are resuspended in 10 volumes of wash buffer (5 mM Tris HCl, 10 mM MgCl2, 2 mM EGTA, pH 7.4 at RT), homogenized with a Polytron, and then centrifuged at 45,000 G for 20 min at 4° C. The membrane pellets are washed twice with wash buffer (45,000 G for 20 min at 4° C.) and then resuspended (50 mM Tris HCl, 10 mM MgCl2, 2 mM EGTA, pH 7.4 at RT). Protein concentration is determined using Pierce reagents and BSA as standard. […]
The competition binding assay is performed in a final volume of 250 μl, which contains assay buffer (50 mM Tris-HCl, 10 mM MgCl2, 2 mM EGTA, 0.2% BSA, 0.1 mM bacitracin and 100 kIU/mL aprotinin pH 7.2 at R.T.), 0.05 nM [^125I]Tyr^0-ovine CRF (Du Pont New England Nuclear), 50 μg of membrane protein, and test compound at various concentrations. Non-specific binding is determined with 1 uM hCRF. […] Unbound radioactivity is removed by four rapid washes (0.8 ml/well) with wash buffer. The radioactivity is quantified using a Packard TopCount. Data are analyzed using non-linear iterative curve fitting to obtain IC50 and Hill slope values. […]

- Ki: 123 nM
Compound: CCCN(CC1CC1)c1nc(C)nc2c1CCCC21CCc2ccccc21 (stereo not shown) [Compound 1, (2,3,5′,6′,-Tetrahydro)-2′-methyl-4′-(N-propyl-N-cyclo-propylmethyl-amino)spiro[(1H)indene-1,8′-(7H)quina-zoline]]
